According to patent publication US20100022483A1, “Substituted Tetracycline Compounds” (Paratek Pharmaceuticals, Inc., priority 2008, published 2010):
Converted amounts (≈) assume the structure as drawn. Where two headings read alike, the source gives them in different places.

How the values were obtained:
[1] = in vitro; assay type: cell-based; settings: Chinese hamster, Cytotox. CHO-K1
Method: (§1) COS-1 and CHO-K1 cell suspensions were prepared, seeded into 96-well tissue culture treated black-walled microtiter plates (density determined by cell line), and incubated overnight at 37° C., in 5% CO2 and approximately 95% humidity. The following day, serial dilutions of compound were prepared under sterile conditions and transferred to cell plates. Cell/Compound plates were incubated under the above conditions for 24 hours. Following the incubation period, media/compound was aspirated and 50 μl of resazurin (0.042 mg/ml in PBS w/Ca and Mg) is added. The plates were then incubated under the above conditions for 2 hours and then placed in the dark at room temperature for an additional 30 minutes. Fluorescence measurements were taken (excitation 535 nm, emission 590 nm). The IC50 (concentration of compound causing 50% growth inhibition) was then calculated. Table 3 includes IC50 data for several substituted tetracycline compounds.

[2] = system: gram negative bacteria; assay: In vitro anti-bacterial activity assay (broth dilution MIC), gram negative bacteria; assay type: cell-based, E. coli
Source text: (§2) Bacterial infections may be caused by a wide variety of gram positive and gram negative bacteria. Some of the compounds of the invention are useful as antibiotics against organisms which are resistant and/or sensitive to other tetracycline compounds. The antibiotic activity of the tetracycline compounds of the invention may by using the in vitro standard broth dilution method described in Waitz, J. A., CLSI, Document M7-A2, vol. 10, no. 8, pp. 13-20, 2nd edition, Villanova, Pa. (1990).
(§3) The following assay was used to determine the efficacy of the tetracycline compounds against gram positive and gram negative bacteria. 2 mg of each compound was dissolved in 100 μl of DMSO. […] The tetracycline compound solutions were diluted to 50 μL volumes, with a test compound concentration of 0.098 μg/ml. Optical density (OD) determinations were made from fresh log-phase broth cultures of the test strains. Dilutions were made to achieve a final cell density of […] CFU/ml. At OD=1, cell densities for different genera were approximately:
(§4) 50 μl of the cell suspensions were added to each well of microtiter plates. The final cell density was approximately 5×10^5 CFU/ml. These plates were incubated at 35° C. in an ambient air incubator for approximately 18 hours. The plates were read with a microplate reader and were visually inspected when necessary. The MIC was defined as the lowest concentration of the tetracycline compound that inhibits growth. Table 3 includes MIC data for several substituted tetracycline compounds.

[3] = system: gram positive bacteria; assay: In vitro anti-bacterial activity assay (broth dilution MIC), gram positive bacteria; assay type: cell-based, S. aureus; settings: 18 h
Source text: as §2, §3, §4

[4] = Mammalian cytotoxicity assay (resazurin), COS-1 cells; assay type: cell-based; settings: African green monkey, read-out: Cytotox. COS-1
Method: as §1

[5] = system: 3T3 fibroblast cells; assay: In vitro phototoxicity assay (neutral red; UV light-treated vs dark control plates); assay type: cell-based; settings: for Photo Toxicity UV Tox50: UV light 50 minutes; for Photo Toxicity Dark Tox50: dark control plate
Method: 3T3 fibroblast cells were harvested and plated at a concentration of 1×10^5 cells/mL and the plates were incubated overnight at 37° C., in 5% CO2 and approximately 95% humidity. On the following day the medium was removed from the plates and replaced with Hanks' Balanced Salt Solution (HBSS). Compound dilutions were made in HBSS and added to the plates. For each compound tested, a duplicate plate was prepared that was not exposed to light as a control for compound toxicity. Plates were then incubated in a dark drawer (for controls), or under UV light (meter reading of 1.6-1.8 mW/cm^2) for 50 minutes. Cells were then washed with HBSS, fresh medium was added, and plates were incubated overnight as described above. The following day neutral red was added as an indicator of cell viability. The plates were then incubated for an additional 3 hours. Cells were then washed with HBSS and blotted on absorbent paper to remove excess liquid. A solution of 50% EtOH, 10% glacial acetic acid was added and after 20 minutes incubation the plate's absorbance at 535 nm was read using a Wallac Victor 5 spectrophotometer. The phototoxicity reflected the difference between the light-treated and control cultures. Table 3 includes phototoxicity (μM) data for several substituted tetracycline compounds.

[6] = Escherichia coli, 18 h, E. coli D1 209, read-out: Median MIC's G− E. coli D1 209
[7] = Staphylococcus aureus, S. aureus MRSA5, read-out: Median MIC's G+ S. aureus MRSA5
[8] = Staphylococcus aureus, S. aureus RN450, read-out: Median MIC's G+ S. aureus RN450
[9] = Streptococcus pneumoniae, S. pneumoniae 157E-Strep, read-out: Median MIC's G+ S. pneumoniae 157E-Strep
[10] = Escherichia coli, 18 h, E. coli MG 1655, read-out: Median MIC's G− E. coli MG 1655
[11] = Escherichia coli, ATCC25922, 18 h, E. coli ATCC 25922, read-out: Median MIC's G− E. coli ATCC 25922
[12] = Pseudomonas aeruginosa, 18 h, P. aeruginosa K201 PAO6609, read-out: Median MIC's G− P. aeruginosa K201 PAO6609

| SMILES | IC50 at 24 h [1] [µM] | MIC [2, 6] [µg/mL] | MIC [3, 7] [µg/mL] | MIC [3, 8] [µg/mL] | MIC [3, 9] [µg/mL] | IC50 at 24 h [4] [µM] | Photo Toxicity UV Tox50 [5] [µM] | Photo Toxicity Dark Tox50 [5] [µM] | MIC [2, 10] [µg/mL] | MIC [2, 11] [µg/mL] | MIC [2, 12] [µg/mL] | MIC ([2]; Escherichia coli, 18 h, read-out: Median MIC's G− E. coli D1 209, E. coli D1 209) [µg/mL] |
| --- | --- | --- | --- | --- | --- | --- | --- | --- | --- | --- | --- | --- |
| COc1ccc(CNCc2ccc(-c3ccc(O)c4c3C[C@H]3C[C@H]5[C@H](N(C)C)C(O)=C(C(N)=O)C(=O)[C@@]5(O)C(O)=C3C4=O)cc2)cc1 (stereo in doubt) [AW] | 13.5 | 1 (≈ 1.56 µM) | 1 (≈ 1.56 µM) | 0.06 (≈ 0.0938 µM) | 0.06 (≈ 0.0938 µM) | < 1.97 |  |  |  |  |  |  |
| CO/N=C/c1ccc(-c2ccc(O)c3c2C[C@H]2C[C@H]4[C@H](N(C)C)C(O)=C(C(N)=O)C(=O)[C@@]4(O)C(O)=C2C3=O)o1 (stereo in doubt) [AZ] | 3.04 | 64 (≈ 119 µM) | 1 (≈ 1.86 µM) | 0.13 (≈ 0.242 µM) | 0.06 (≈ 0.112 µM) | < 2.44 | >156.79 | >156.79 |  |  |  |  |
| CN(C)[C@H]1C(O)=C(C(N)=O)C(=O)[C@@]2(O)C(O)=C3C(=O)c4c(O)ccc(-c5cccc(C(N)=O)c5)c4C[C@H]3C[C@@H]12 (stereo in doubt) [B] | > 15.7 | 64 (≈ 120 µM) | 64 (≈ 120 µM) | 2 (≈ 3.75 µM) | 2 (≈ 3.75 µM) | > 15.7 | >156.64 | >156.64 | 64 (≈ 120 µM) | 64 (≈ 120 µM) | 64 (≈ 120 µM) |  |
| CN(C)CCNC(=O)c1cccc(-c2ccc(O)c3c2C[C@H]2C[C@H]4[C@H](N(C)C)C(O)=C(C(N)=O)C(=O)[C@@]4(O)C(O)=C2C3=O)c1 [AB] | > 200 | 64 (≈ 106 µM) | 32 (≈ 52.9 µM) | 0.5 (≈ 0.827 µM) | 0.25 (≈ 0.413 µM) | > 200 | >200 | >200 | 16 (≈ 26.5 µM) | 32 (≈ 52.9 µM) | 64 (≈ 106 µM) |  |
| CN(C)C(=O)c1cccc(-c2ccc(O)c3c2C[C@H]2C[C@H]4[C@H](N(C)C)C(O)=C(C(N)=O)C(=O)[C@@]4(O)C(O)=C2C3=O)c1 [AC] | > 9.4 | 64 (≈ 114 µM) | 16 (≈ 28.5 µM) | 0.25 (≈ 0.445 µM) |  | > 37.6 |  |  |  |  |  |  |
| CN(C)CCNC(=O)c1ccc(-c2ccc(O)c3c2C[C@H]2C[C@H]4[C@H](N(C)C)C(O)=C(C(N)=O)C(=O)[C@@]4(O)C(O)=C2C3=O)cc1 [AD] | > 43.5 | 64 (≈ 106 µM) | 16 (≈ 26.5 µM) | 0.25 (≈ 0.413 µM) | 0.13 (≈ 0.215 µM) | > 43.5 | 135.17 | >140.2 | 8 (≈ 13.2 µM) | 16 (≈ 26.5 µM) | 64 (≈ 106 µM) |  |
| CN(C)[C@@H]1C(O)=C(C(N)=O)C(=O)[C@@]2(O)C(O)=C3C(=O)c4c(O)ccc(-c5cccc(C(N)=O)c5)c4C[C@H]3C[C@@H]12 [AE] | > 15.7 | 64 (≈ 120 µM) | 4 (≈ 7.5 µM) | 0.06 (≈ 0.112 µM) | 0.06 (≈ 0.112 µM) | > 15.7 | >156.64 | >156.64 | 4 (≈ 7.5 µM) | 4 (≈ 7.5 µM) | 64 (≈ 120 µM) |  |
| CN(C)[C@@H]1C(O)=C(C(N)=O)C(=O)[C@@]2(O)C(O)=C3C(=O)c4c(O)ccc(-c5ccc(NC(=O)CNC(C)(C)C)cc5)c4C[C@H]3C[C@@H]12 [AF] | > 13.7 | 2 (≈ 3.23 µM) | 4 (≈ 6.47 µM) | 0.06 (≈ 0.097 µM) | 0.06 (≈ 0.097 µM) | > 13.7 | >137.36 | >137.36 |  |  |  |  |
| COCCNCC(=O)c1ccc(O)c2c1C[C@H]1C[C@H]3[C@H](N(C)C)C(O)=C(C(N)=O)C(=O)[C@@]3(O)C(O)=C1C2=O [AG] | > 158 | 64 (≈ 121 µM) | 64 (≈ 121 µM) | 4 (≈ 7.55 µM) | 4 (≈ 7.55 µM) | > 158 | >157.68 | >157.68 | 32 (≈ 60.4 µM) | 32 (≈ 60.4 µM) | 64 (≈ 121 µM) |  |
| CN(C)CCNC(=O)c1ccc(O)c2c1C[C@H]1C[C@H]3[C@H](N(C)C)C(O)=C(C(N)=O)C(=O)[C@@]3(O)C(O)=C1C2=O [AH] | > 126 | 64 (≈ 121 µM) | 64 (≈ 121 µM) | 16 (≈ 30.3 µM) | 8 (≈ 15.1 µM) | > 126 | >125.56 | >125.56 | 64 (≈ 121 µM) | 64 (≈ 121 µM) | 64 (≈ 121 µM) |  |
| CN(C)[C@@H]1C(O)=C(C(N)=O)C(=O)[C@@]2(O)C(O)=C3C(=O)c4c(O)ccc(-c5ccccc5)c4C[C@H]3C[C@@H]12 [AQ] | 6.91 | 8 (≈ 16.3 µM) | 0.25 (≈ 0.51 µM) | 0.06 (≈ 0.122 µM) | 0.06 (≈ 0.122 µM) | 6.06 |  |  |  |  |  |  |
| COC(=O)c1ccc(-c2ccc(O)c3c2C[C@H]2C[C@H]4[C@H](N(C)C)C(O)=C(C(N)=O)C(=O)[C@@]4(O)C(O)=C2C3=O)cc1 [AR] | < 2.53 |  | 0.315 (≈ 0.574 µM) | 0.06 (≈ 0.109 µM) | 0.25 (≈ 0.456 µM) | 4.8 |  |  |  |  |  | 64 (≈ 117 µM) |
| CC(=O)c1cccc(-c2ccc(O)c3c2C[C@H]2C[C@H]4[C@H](N(C)C)C(O)=C(C(N)=O)C(=O)[C@@]4(O)C(O)=C2C3=O)c1 [AS] |  | 64 (≈ 120 µM) | 0.5 (≈ 0.939 µM) | 0.06 (≈ 0.113 µM) | 0.06 (≈ 0.113 µM) |  |  |  |  |  |  |  |
| CC(C)OC(=O)c1cccc(-c2ccc(O)c3c2C[C@H]2C[C@H]4[C@H](N(C)C)C(O)=C(C(N)=O)C(=O)[C@@]4(O)C(O)=C2C3=O)c1 [AU] | 6.12 | 64 (≈ 111 µM) | 1 (≈ 1.73 µM) | 0.25 (≈ 0.434 µM) | 0.5 (≈ 0.867 µM) | 4.56 |  |  |  |  |  |  |
| CN(C)[C@@H]1C(O)=C(C(N)=O)C(=O)[C@@]2(O)C(O)=C3C(=O)c4c(O)ccc(-c5ccc(CN6CCOCC6)o5)c4C[C@H]3C[C@@H]12 [AX] | > 32.6 | 8 (≈ 13.8 µM) | 4 (≈ 6.9 µM) | 0.06 (≈ 0.104 µM) | 0.06 (≈ 0.104 µM) | 27.1 |  |  |  |  |  |  |
| CN1CCN(Cc2ccc(-c3ccc(O)c4c3C[C@H]3C[C@H]5[C@@H](N(C)C)C(O)=C(C(N)=O)C(=O)[C@@]5(O)C(O)=C3C4=O)o2)CC1 [AY] | > 32 | 64 (≈ 108 µM) | 32 (≈ 54 µM) | 0.5 (≈ 0.844 µM) | 0.25 (≈ 0.422 µM) | > 32 |  |  |  |  |  |  |
| CN(C)c1cc(-c2ccc(CN3CCN(CCO)CC3)o2)c(O)c2c1C[C@H]1C[C@H]3[C@H](N(C)C)C(O)=C(C(N)=O)C(=O)[C@@]3(O)C(O)=C1C2=O [BA] | > 111 | 64 (≈ 96.1 µM) | 64 (≈ 96.1 µM) | 1 (≈ 1.5 µM) | 2 (≈ 3 µM) | > 111 |  |  |  |  |  |  |
| COCc1cccc(-c2ccc(O)c3c2C[C@H]2C[C@H]4[C@H](N(C)C)C(O)=C(C(N)=O)C(=O)[C@@]4(O)C(O)=C2C3=O)c1 [DB] | 13.2 | 64 (≈ 120 µM) | 0.5 (≈ 0.935 µM) | 0.06 (≈ 0.112 µM) | 0.06 (≈ 0.112 µM) | 10.4 |  |  |  |  |  |  |
